Measured values published in ChEMBL document CHEMBL2429769, “Synthesis and bioconversions of formestane” (J Nat Prod, 2013).

Key:
[1] = system: MCF7; assay: Cytotoxicity against human MCF7 cells after 72 hrs by SRB assay; format: functional, cell-based; settings: MCF7, 72 h
[2] = target: T1, Aromatase (Homo sapiens, UniProt P11511)
T1 sequence (P11511 whole entry): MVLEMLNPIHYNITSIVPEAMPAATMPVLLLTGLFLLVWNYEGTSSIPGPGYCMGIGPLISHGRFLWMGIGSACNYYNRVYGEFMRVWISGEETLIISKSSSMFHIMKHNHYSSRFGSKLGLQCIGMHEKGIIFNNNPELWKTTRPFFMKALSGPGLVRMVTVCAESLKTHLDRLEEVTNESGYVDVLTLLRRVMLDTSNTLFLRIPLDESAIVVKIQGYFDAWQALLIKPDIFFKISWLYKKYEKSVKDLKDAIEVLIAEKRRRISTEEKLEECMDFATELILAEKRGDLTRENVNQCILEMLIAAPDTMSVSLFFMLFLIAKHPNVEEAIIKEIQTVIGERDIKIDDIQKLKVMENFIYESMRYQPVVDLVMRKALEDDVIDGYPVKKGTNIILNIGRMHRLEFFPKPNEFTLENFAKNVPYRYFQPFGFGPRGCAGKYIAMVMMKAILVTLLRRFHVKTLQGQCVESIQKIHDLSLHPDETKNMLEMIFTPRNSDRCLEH
Description: Inhibition of aromatase (unknown origin) using dibenzylfluorescein as substrate after 30 mins by fluorescence assay

Structure (SMILES)	IC50 [1]	IC50 [2]
C[C@]12CC[C@H]3[C@@H](CC[C@@]4(O)[C@@H](O)C(=O)CC[C@]34C)[C@@H]1CCC2=O	15 µM	29.1 µM
C[C@]12CC[C@H]3[C@@H](CCC4=C(O)C(=O)CC[C@@]43C)[C@@H]1CC[C@@H]2O	16.5 µM	47 µM
C[C@]12C[C@@H](O)[C@H]3[C@@H](CCC4=C(O)C(=O)CC[C@@]43C)[C@@H]1CC[C@@H]2O	12.5 µM	10.9 µM
C[C@]12CC[C@@H](O)C(=O)[C@H]1CC[C@@H]1[C@@H]2CC[C@]2(C)[C@@H](O)CC[C@@H]12 [3ALPHA,17BETA-DIHYDROXY-5BETA-ANDROSTAN-4-ONE]	16.4 µM	3.9 µM
C[C@]12CCC(=O)C(O)=C1CC[C@@H]1[C@@H]2CC[C@]2(C)C(=O)CC[C@@H]12 [FORMESTANE]	20 µM	58.6 µM
CC[C@]1(O)C[C@@H]2CN(CCc3c([nH]c4ccccc34)[C@@](C(=O)OC)(c3cc4c(cc3OC)N(C)[C@H]3[C@@](O)(C(=O)OC)[C@H](OC(C)=O)[C@]5(CC)C=CCN6CC[C@]43[C@@H]65)C2)C1 [VINBLASTINE]	0.0109 µM	
